Measurements: ChEMBL document CHEMBL3856280, “Targeting the HSP60/10 chaperonin systems of Trypanosoma brucei as a strategy for treating African sleeping sickness” (Bioorg Med Chem Lett, 2016)

What was measured:
[1] = biological target: T1, E. coli GroEL/ES (Escherichia coli, UniProt P0A6F5); assay: Inhibition of Escherichia coli GroEL/GroES expressed in Escherichia coli DH5alpha/BL21 (DE3) assessed as inhibition of denatured MDH refolding preincubated for 10 mins followed by ATP addition measured after 20 to 40 mins by fluorescence based assay
[2] = biological target: T2, HSP60/HSP10 (Homo sapiens, UniProt P10809); assay: Inhibition of human mitochondrial HSP60/HSP10 expressed in Escherichia coli DH5alpha/BL21 (DE3) assessed as inhibition of denatured MDH refolding preincubated for 10 mins followed by ATP addition measured after 40 to 60 mins by fluorescence based assay
[3] = system: Trypanosoma brucei brucei; assay: Antitrypanosomal activity against Trypanosoma brucei brucei Lister 427 VSG 221 [TetR T7RNAP] transgenic bloodstream forms assessed as reduction in cell viability after 48 hrs by alamar blue assay; type: functional; settings: Lister 427 VSG 221, 48 h
[4] = Cytotoxicity against HEK293 cells assessed as reduction in cell viability after 48 hrs by alamar blue assay; type: toxicity, cell-based; settings: human
[5] = Inhibition of pig heart native MDH reporter reaction after 20 to 40 mins by fluorescence based assay; design: species or system Sus scrofa
[6] = biological target: T1, E. coli GroEL/ES; assay: Inhibition of Escherichia coli GroEL/GroES-ATPase activity expressed in Escherichia coli DH5alpha/BL21 (DE3) assessed as inhibition of denatured MDH refolding preincubated for 10 mins followed by ATP addition measured after 20 to 40 mins by malachite green dye based fluorescence assay
[7] = Cytotoxicity against human THLE3 cells assessed as reduction in cell viability after 48 hrs by alamar blue assay; type: toxicity, cell-based
[8] = biological target: T2, HSP60/HSP10; assay: Inhibition of human mitochondrial HSP60/HSP10-ATPase activity expressed in Escherichia coli DH5alpha/BL21 (DE3) assessed as inhibition of denatured MDH refolding preincubated for 10 mins followed by ATP addition measured after 40 to 60 mins by malachite green dye based fluorescence assay

T1 sequence (P0A6F5 whole entry, looked up): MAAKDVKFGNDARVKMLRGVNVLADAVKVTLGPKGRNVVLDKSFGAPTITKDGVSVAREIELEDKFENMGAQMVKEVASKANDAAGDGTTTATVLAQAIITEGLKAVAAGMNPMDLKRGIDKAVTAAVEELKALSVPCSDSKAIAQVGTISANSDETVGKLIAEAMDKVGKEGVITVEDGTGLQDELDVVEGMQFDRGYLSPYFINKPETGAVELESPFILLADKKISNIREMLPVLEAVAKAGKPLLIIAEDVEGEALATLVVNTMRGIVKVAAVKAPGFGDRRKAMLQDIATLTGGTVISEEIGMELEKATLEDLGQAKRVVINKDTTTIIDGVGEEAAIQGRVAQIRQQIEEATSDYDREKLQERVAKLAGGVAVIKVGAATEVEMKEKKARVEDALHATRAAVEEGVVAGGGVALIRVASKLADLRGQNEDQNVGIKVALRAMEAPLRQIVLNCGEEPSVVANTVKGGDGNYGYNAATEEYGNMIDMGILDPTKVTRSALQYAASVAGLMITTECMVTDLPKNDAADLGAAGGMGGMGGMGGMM
T2 sequence (P10809 whole entry): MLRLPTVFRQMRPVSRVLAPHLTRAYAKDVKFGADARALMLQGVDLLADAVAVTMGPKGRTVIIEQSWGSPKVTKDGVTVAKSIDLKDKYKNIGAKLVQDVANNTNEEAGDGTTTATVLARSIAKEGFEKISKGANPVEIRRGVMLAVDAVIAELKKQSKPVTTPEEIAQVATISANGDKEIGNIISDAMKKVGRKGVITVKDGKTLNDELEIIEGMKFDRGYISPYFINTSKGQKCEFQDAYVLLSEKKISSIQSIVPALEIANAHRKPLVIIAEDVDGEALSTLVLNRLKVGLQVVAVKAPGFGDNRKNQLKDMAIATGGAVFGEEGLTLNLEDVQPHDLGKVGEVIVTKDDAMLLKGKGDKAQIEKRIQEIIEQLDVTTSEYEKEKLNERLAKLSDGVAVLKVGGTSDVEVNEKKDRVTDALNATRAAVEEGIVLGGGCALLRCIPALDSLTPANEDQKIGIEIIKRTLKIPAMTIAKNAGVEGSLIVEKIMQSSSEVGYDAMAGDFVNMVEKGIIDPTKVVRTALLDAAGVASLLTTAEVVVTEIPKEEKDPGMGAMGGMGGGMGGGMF
T2 sequence (P61604 whole entry, further chain): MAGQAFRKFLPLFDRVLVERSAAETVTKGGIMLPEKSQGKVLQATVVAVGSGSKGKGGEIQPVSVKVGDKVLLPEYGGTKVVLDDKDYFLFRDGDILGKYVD

Structure (SMILES)	IC50 [1] [µM]	IC50 [2] [µM]	EC50 [3] [µM]	EC50 at 48 h [4] [µM]	IC50 [5] [µM]	IC50 [6] [µM]	EC50 at 48 h [7] [µM]	IC50 [8] [µM]
Cc1cccc(S(=O)(=O)Nc2ccc(-c3nc4cc(NS(=O)(=O)c5cccc(C)c5)ccc4o3)cc2)c1	35	> 100	4.9	65	> 63	> 250	18	> 250
CS(=O)(=O)Nc1ccc(-c2nc3cc(NS(C)(=O)=O)ccc3o2)cc1	> 100	> 100	> 42	> 100	> 63	> 250	> 100	> 250
O=S(=O)(Nc1ccc(-c2nc3cc(NS(=O)(=O)c4cccc(F)c4)ccc3o2)cc1)c1cccc(F)c1	5.3	68	10	24	> 63	5.1	20	> 250
O=S(=O)(Nc1ccc(-c2nc3cc(NS(=O)(=O)c4ccccc4C(F)(F)F)ccc3o2)cc1)c1ccccc1C(F)(F)F	25	> 100	28	66	> 63	21	50	> 250
O=S(=O)(Nc1ccc(-c2nc3cc(NS(=O)(=O)c4ccccc4)ccc3o2)cc1)c1ccccc1	3.9	> 100	6.4	15	> 63	4.6	19	> 250
O=S(=O)(Nc1ccc(-c2nc3cc(NS(=O)(=O)c4cccc(Cl)c4)ccc3o2)cc1)c1cccc(Cl)c1	18	> 100	4.5	21	> 63	> 250	17	> 250
O=S(=O)(Nc1ccc(-c2nc3cc(NS(=O)(=O)c4ccc(C(F)(F)F)cc4)ccc3o2)cc1)c1ccc(C(F)(F)F)cc1	35	61	4.1	> 100	> 63	> 250	21	> 250
O=S(=O)(Nc1ccc(-c2nc3cc(NS(=O)(=O)c4ccccc4O)ccc3o2)cc1)c1ccccc1O	7.5	13	5	18		36	19	33
O=S(=O)(Nc1ccc(-c2nc3cc(NS(=O)(=O)c4cccc5nsnc45)ccc3o2)cc1)c1cccc2nsnc12	22	98	> 42	52	> 63	127	> 100	152
O=S(=O)(Nc1ccc(-c2nc3cc(NS(=O)(=O)c4ccc(F)cc4)ccc3o2)cc1)c1ccc(F)cc1	3.8	> 100	4.3	21	> 63	4.3	19	> 250
O=S(=O)(Cc1ccccc1)Nc1ccc(-c2nc3cc(NS(=O)(=O)Cc4ccccc4)ccc3o2)cc1	55	> 100	13	19	> 63	208	29	> 250
COc1cccc(S(=O)(=O)Nc2ccc(-c3nc4cc(NS(=O)(=O)c5cccc(OC)c5)ccc4o3)cc2)c1	48	> 100	5.1	28	> 63	> 250	15	> 250
O=S(=O)(Nc1ccc(-c2nc3cc(NS(=O)(=O)c4ccccc4F)ccc3o2)cc1)c1ccccc1F	22	77	19	31	> 63	> 250	55	> 250
O=c1ccc2cc(S(=O)(=O)Nc3ccc(-c4nc5cc(NS(=O)(=O)c6ccc7oc(=O)ccc7c6)ccc5o4)cc3)ccc2o1	18	70	> 42	> 100	> 63	83	> 100	201
O=S(=O)(Nc1ccc(-c2nc3cc(NS(=O)(=O)c4cccc5ccccc45)ccc3o2)cc1)c1cccc2ccccc12	23	> 100	2.1	> 100	> 63	54	69	144
CCCS(=O)(=O)Nc1ccc(-c2nc3cc(NS(=O)(=O)CCC)ccc3o2)cc1	> 100	> 100	18	> 100	> 63	> 250	> 100	> 250
O=S(=O)(Nc1ccc(-c2nc3cc(NS(=O)(=O)c4cccc(Br)c4)ccc3o2)cc1)c1cccc(Br)c1	23	> 100	8	25	> 63	45	21	> 250
O=S(=O)(Nc1ccc(-c2nc3cc(NS(=O)(=O)c4cccc5nonc45)ccc3o2)cc1)c1cccc2nonc12	32	66	> 42	45	> 63	> 250	58	212
COc1ccc(S(=O)(=O)Nc2ccc(-c3nc4cc(NS(=O)(=O)c5ccc(OC)cc5)ccc4o3)cc2)cc1	36	> 100	3.3	88	> 63	84	> 100	> 250
Cc1ccccc1S(=O)(=O)Nc1ccc(-c2nc3cc(NS(=O)(=O)c4ccccc4C)ccc3o2)cc1	> 100	> 100	1.8	25	> 63	194	17	> 250
O=S(=O)(Nc1ccc(-c2nc3cc(NS(=O)(=O)c4ccc5ncsc5c4)ccc3o2)cc1)c1ccc2ncsc2c1	0.81	49	25	95	> 63	0.55	30	> 250
O=S(=O)(Nc1ccc(-c2nc3cc(NS(=O)(=O)C(F)(F)F)ccc3o2)cc1)C(F)(F)F	40	97	> 42	> 100	> 63	> 250	> 100	> 250
O=S(=O)(Nc1ccc(-c2nc3cc(NS(=O)(=O)c4cccc(C(F)(F)F)c4)ccc3o2)cc1)c1cccc(C(F)(F)F)c1	15	> 100	4.8	15	> 63	216	19	> 250
O=S(=O)(Nc1ccc(-c2nc3cc(NS(=O)(=O)c4cccs4)ccc3o2)cc1)c1cccs1	4.6	57	17	26	> 63	6.7	44	> 250
O=S(=O)(Nc1ccc(-c2nc3cc(NS(=O)(=O)c4ccc(Cl)cc4)ccc3o2)cc1)c1ccc(Cl)cc1	23	96	3.2	13	> 63	35	18	> 250
COc1ccccc1S(=O)(=O)Nc1ccc(-c2nc3cc(NS(=O)(=O)c4ccccc4OC)ccc3o2)cc1	69	> 100	2.7	79	> 63	> 250	> 100	> 250
O=S(=O)(Nc1ccc(-c2nc3cc(NS(=O)(=O)c4ccc(Br)cc4)ccc3o2)cc1)c1ccc(Br)cc1	24	> 100	2.4	22	> 63	19	16	> 250
O=S(=O)(Nc1ccc(-c2nc3cc(NS(=O)(=O)c4ccc5nsnc5c4)ccc3o2)cc1)c1ccc2nsnc2c1	3.7	62	> 42	76	> 63	1.7	45	127
O=S(=O)(Nc1ccc(-c2nc3cc(NS(=O)(=O)c4ccccc4Br)ccc3o2)cc1)c1ccccc1Br	63	> 100	28	28	> 63	144	37	> 250
O=S(=O)(Nc1ccc(-c2nc3cc(NS(=O)(=O)c4ccccc4Cl)ccc3o2)cc1)c1ccccc1Cl	46	> 100	5.9	75	> 63	131	24	> 250
